Measured values published in patent US5932242A, “Ether lipid-containing pharmaceutical compositions and therapeutic uses thereof” (The Liposome Company, Inc., priority 1996, dated 1999).

Key:
[1] = Monolayer mean molecular area per molecule (MMAM) measurement, Langmuir-Blodgett mini-trough; assay type: physicochemical; conditions: single-lipid monolayer, 23° C., 10 mM HEPES, 150 mM NaCl, pH 7.2, extrapolated to zero surface pressure
Description: A measure of the amount of space occupied by a lipid molecule is the mean area ("MMAM") that a molecule of the lipid occupies in a monolayer formed of that lipid. MMAM values for various lipids can readily be determined by ordinarily skilled artisans given the teachings of this invention, for example, as set forth in Example 1 below. MMAM values can be determined by first forming a lipid monolayer on the surface of an aqueous medium contained within a suitable trough, by the drop-wise addition of a lipid solution to the surface of the aqueous medium. […] Surface pressures for the different surface areas are recorded, and area-vs.-pressure curves compiled. MMAM values are obtained from these curves by extrapolating the steepest portion of the curve to a lipid's surface area at zero pressure.
The mean area occupied by a lipid molecule in a monolayer formed by a combination of cone-shaped and inverted cone-shaped lipids could be calculated according to the equation A0 =X^1 ·A^1 +X^2 ·A^2 (see Ali et al., the contents of which are incorporated herein by reference), wherein "A0 " is the MMAM expected of the lipids in the two component system, X^1 and X^2 are the relative mole percentages of the lipids in the combination, and A^1 and A^2 are the measured MMAM values of the individual lipids. Accordingly, the combination of lipids in a two-component monolayer would be expected to result in a mean molecular area per lipid molecule ("MMAMexpected ") reflective of the relative proportions in which each of the constituent lipids is present in the combination. That is, calculated in accordance with the above equation, the MMAM value expected of the lipids would be additive.
The mean molecular area per molecule of formulations containing the ether lipid ET-18-OCH3 was determined using a Langmuir-Blodgett mini-trough equipped with a dual barrier mechanism and a Wilhelmy balance, all obtained from KSV Instruments (Trumbull, Conn.). ET-18-OCH3 formulations were prepared from lipid powders that were dissolved in a solvent system of hexane:ethanol 9:1. Single lipid solutions and mixtures were made to contain an overall lipid concentration of approximately 1.5 mM which was quantitated precisely by phosphate (Chen et al., 1956) and cholesterol assays (Rudel & Morris, 1973). Monolayers were formed by dropwise addition of sample on to the aqueous surface (10 mM HEPES, 150 mM NaCl buffer, pH 7.2) at the center of the trough. Sample was added until the surface pressure just started to rise above zero, at which time the exact volume of sample added was recorded. After waiting three minutes for solvent evaporation and monolayer stabilization, the surface area of the monolayer was reduced at a rate of 15 cm^2 /min, and surface pressure was recorded. The solution level was maintained 1 mm below the top edge of the trough to avoid leakage; contact was maintained with the barriers (composed of Delrin) due to their hydrophilic nature.
Pressure vs. area curves were compiled from data obtained as described above (see FIGS. 1 and 2), and MMAM values were determined by extrapolating the steepest portion of the curve to the value at zero surface pressure. […] All experiments were done at 23° C. […] MMAMs (A0) were determined for each lipid by extrapolation of the steepest portion of the curves to the value at zero surface pressure; and are as follows: ET-18-OCH3 : 72.8 Å^2; CHOL: 44.8 Å^2; DOPE: 82.3 Å^2; POPC: 82.0 Å^2; and, DOPC: 82.0 Å^2.

[2] = art knowledge; cited from earlier work
[3] = Hemolysis of washed human red blood cells (H50); assay type: cell-based; conditions: human, red blood cells
Experimental: (§1) The hemolytic activity of ET-18-OCH3 /CHOL, DOPE, POPC or DOPC liposomes, prepared as described below in Example 2, have also been examined, as described hereinbelow in Example 3. Results, presented hereinbelow in FIG. 3, are in the form of the ET-18-OCH3 concentration in the various liposomes required to achieve hemolysis of 50% of the red blood cells present in a sample (H50).
(§2) […] All liposomes were extruded, in order to assure uniform size distribution.
(§3) Hemolysis was assessed as previously described (Perkins et al., 1992). Briefly, each sample was serially diluted with buffer solution and 0.3 ml of each diluted solution was mixed with 0.3 ml of washed human red blood cells [4% in PBS (v/v)]. For controls, 0.3 ml of the red blood cell suspension was mixed with either 0.3 ml of buffer solution (negative hemolysis control) or 0.3 ml of distilled water (positive hemolysis control). Samples and standards were placed in a 37° C. incubator and agitated for 20 hours. Tubes were centrifuged at low speed (2000 g) for 10 minutes to pellet RBCs. Two hundred μl of the supernatant was removed and mixed with 1 ml of water. Hemolysis was quantitated by absorbance at 550 nm using a Shimadzu 2101 UV-Vis Scanning Spectrophotometer (Shimadzu Corp., Kyoto, Japan). One hundred percent hemolysis was defined as the maximum amount of hemolysis obtained from free ET-18-OCH3.

[4] = system: human red blood cells; assay: Hemolysis of washed human red blood cells (H50); assay type: cell-based; conditions: concluded from hemolysis of 60 mole % ET-18-OCH3 /cholesterol SUVs
Experimental: as §1, §2, §3

SMILES | MMAM (A0) of individual lipid [1] [Å^2] | packing parameter [2] | HC50 at 20 h [3] [µM] | Ability to form stable liposome structures [4]
CCCCCCCC/C=C\CCCCCCCC(=O)OCC(COP(=O)(O)OCCN)OC(=O)CCCCCCC/C=C\CCCCCCCC (stereo not drawn) [DOPE, dioleoyl phosphatidylethanolamine] | 82.3 | 1.2-1.3 |  | 
CC(C)CCC[C@@H](C)[C@H]1CC[C@H]2[C@@H]3CC=C4C[C@@H](O)CC[C@]4(C)[C@H]3CC[C@]12C [CHOL, cholesterol] | 44.8 | 1.2-1.3 |  | 
CCCCCCCC/C=C\CCCCCCCC(=O)OCC(COP(=O)([O-])OCC[N+](C)(C)C)OC(=O)CCCCCCC/C=C\CCCCCCCC (stereo not drawn) [DOPC, dioleoyl phosphatidylcholine] | 82.0 |  |  | 
CCCCCCCCCCCCCCCCCCOC[C@H](COP(=O)([O-])OCC[N+](C)(C)C)OC [ET-18-OCH3, 1-O-octadecyl-2-O-methyl-sn-3-phosphorylcholine] | 72.8 |  | 16 | does not form stable liposome structures above a 1:1 stoichiometry
CCCCCCCC/C=C\CCCCCCCC(=O)OC(COC(=O)CCCCCCCCCCCCCCC)COP(=O)([O-])OCC[N+](C)(C)C (stereo not drawn) [POPC, palmitoyloleoyl phosphatidylcholine] | 82.0 |  |  | 
